Test results from article PMC6271780, “Determination of Bioactive Components in Chinese Herbal Formulae and Pharmacokinetics of Rhein in Rats by UPLC-MS/MS” (Molecules, 2014).

Tests used:
[1] = design: method as in PMID 24214833; conditions: cited from earlier work; for detection in rat plasma, decoction group: after oral administration of SHXXT decoction; for detection in rat plasma, maceration group: after oral administration of SHXXT maceration
[2] = Comparative pharmacokinetics of rhein in rats after oral rhein, rhubarb or SHXXT (plasma, UPLC-MS/MS); type: in vivo, Sprague-Dawley rats
Excerpt: All animal experimental protocols were reviewed and approved by the Institutional Animal Care and Use Committee (IACUC number: 1011202) of National Yang-Ming University. Male specific pathogen-free Sprague-Dawley rats were obtained from the Laboratory Animal Center of the National Yang-Ming University, Taipei, Taiwan. The animals had free access to food (laboratory rodent diet 5P14, PMI Feeds, Richmond, IN, USA) and water. For pharmacokinetic study, Sprague-Dawley rats weighing 220 ± 20 g were anesthetized with pentobarbital (50 mg/kg, i.p.) for cannulation. A polyethylene tube (PE50) was implanted into the left carotid artery for blood sampling. The cannula was exteriorized, fixed in the dorsal region of the neck. Patency of the tube was maintained by flushing with heparinized saline (20 IU/mL). After surgery, the rats were kept in cages individually and allowed to recover for one day. The dose of herbal formula for translation from human to animal is recommended by the US Food and Drug Administration guidelines as the following conversion equation : Human equivalent dose (HED, mg/kg) = animal dose (mg/kg) × (animal Km/human Km). Study on pharmacokinetics of rhein at 50, 100, and 200 mg in human (60 kg in adults) has been investigated, and therefore, rhein at 11.9 mg/kg was studied in this study according to the dose translation equation. Briefly, the pure compound rhein, the rhubarb extract, and the SHXXT formula suspended in water at doses of 11.9 mg/kg, 5.2 g/kg, and 5 g/kg were individually administered to rats by oral gavage. The doses of rhubarb extract and SHXXT extract were equivalent to rhein administration dose of 11.9 mg/kg. About 200 µL of blood samples was withdrawn from the cannula implanted in the carotid artery and placed into a heparin-rinsed vial at 0, 15, 30, 45, 60, 90, 120, 150, 180, 240, 300 and 360 min. The method of plasma sample preparation was slightly modified from the previous study. For quantitative analysis, the plasma sample (50 µL) was vortex-mixed with acetonitrile (100 µL) for protein precipitation. Data from these samples were used to construct the pharmacokinetic curve of rhein. The plasma sample was diluted by blank plasma sample at an appropriate ratio before analysis if the rhein concentration was excess 2500 ng/mL. Pharmacokinetic calculations were performed on each individual set of data using the pharmacokinetic software WinNonlin Standard Edition, version 1.1 (Pharsight Corp., Mountain View, CA, USA) by noncompartmental methods.

[3] = design: method as in PMID 19737807; conditions: after SHXXT; cited from earlier work
[4] = design: method as in PMID 21945452; conditions: Chinese healthy subjects, single oral administration, range 50–200 mg; cited from earlier work
[5] = after oral administration of SHXXT
[6] = male, Sprague-Dawley, po, rhein in rat plasma, rhein 11.9 mg/kg, rhubarb 5.2 g/kg or SHXXT 5 g/kg (each equivalent to rhein 11.9 mg/kg), n = 6, mean ± SD
[7] = rhein in rat plasma, p.o., rhein 11.9 mg/kg, rhubarb 5.2 g/kg or SHXXT 5 g/kg (each equivalent to rhein 11.9 mg/kg), n = 6, mean ± SD

Row | SMILES | free (unconjugated) form detected in rat plasma [2, 5] | detection in rat plasma, decoction group [1] | detection in rat plasma, maceration group [1] | further results
1 | COc1cc2c(cc1O)CC[n+]1cc3c(OC)c(OC)ccc3cc1-2 [jatrorrhizine] | – | detected | absent | –
2 | c1c2c(cc3c1OCO3)-c1cc3ccc4c(c3c[n+]1CC2)OCO4 [coptisine] | – | detected | absent | –
3 | O=C(O)[C@H]1O[C@@H](Oc2cc3oc(-c4ccccc4)cc(=O)c3c(O)c2O)[C@H](O)[C@@H](O)[C@@H]1O [baicalin] | not detected | – | – | –
4 | O=c1cc(-c2ccccc2)oc2cc(O)c(O)c(O)c12 [baicalein] | not detected | – | – | forms determined in serum [3]: only the conjugated metabolites
5 | O=C(O)c1cc(O)c2c(c1)C(=O)c1cccc(O)c1C2=O [Rhein, 4,5-dihydroxy-9,10-dioxoanthracene-2-carboxylic acid] | existed in the free form | – | – | dose linearity of pharmacokinetics [4]: linear pharmacokinetics; MRT ([2]; male, Sprague-Dawley, po, rhein in rat plasma, p.o., rhein 11.9 mg/kg, rhubarb 5.2 g/kg or SHXXT 5 g/kg (each equivalent to rhein 11.9 mg/kg), n = 6, mean ± SD, read-out: MRT (mean residence time) (converted)): 1.87 h; half-life ([2]; male, Sprague-Dawley, po, rhein in rat plasma, p.o., rhein 11.9 mg/kg, rhubarb 5.2 g/kg or SHXXT 5 g/kg (each equivalent to rhein 11.9 mg/kg), n = 6, mean ± SD, read-out: T1/2 (elimination half-life)): 2.4 ± 0.287 h; AUC [2, 6]: 3130 ng·h/mL; Cmax [2, 6]: 2450 ± 550 ng/mL; Tmax [2, 6]: 0.417 h; CL (total body clearance) [2, 7]: 58 ± 7.89 mL/min/kg; Vss (volume of distribution) [2, 7]: 12.2 ± 2.10 L/kg
6 | COc1cc2c(cc1OC)-c1cc3ccc(OC)c(OC)c3c[n+]1CC2 [palmatine] | – | detected | absent | free (unconjugated) form detected in rat plasma ([2]; rat, in vivo, po): not detected

Now from value to compound, other results behind:

Row | free (unconjugated) form detected in rat plasma [2, 5] | SMILES | detection in rat plasma, decoction group [1] | detection in rat plasma, maceration group [1] | further results
7 | not detected | Cc1cc(O)c2c(c1)C(=O)c1cc(O)cc(O)c1C2=O [emodin] | – | – | forms determined in serum [3]: only the conjugated metabolites
8 | not detected | COc1ccc2cc3[n+](cc2c1OC)CCc1cc2c(cc1-3)OCO2 [berberine] | detected | absent | –
